# According to US11566007B2, “Ras inhibitors” (Revolution Medicines, Inc., priority 2019, dated 2023):
# Experiments:
# K-Ras G12C = K-Ras G12C (Homo sapiens (Human), UniProt P01116+P62937, G12C); assay: Ras-Raf (BRAF RBD) disruption / FRET / MOA assay, KRAS G12C; assay type: biochemical; conditions: KRAS G12C; Ras-Raf disruption/FRET/MOA assay; read-out: IC50* KRAS G12C FRET data
# Procedure, shortened: (§1)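 Compound-driven ternary complex of nucleotide-loaded Ras with cyclophilin A, disrupting BRAF RBD binding. 10-point 3-fold dilution from 30 μM final, 3 h at 25° C, then anti-His Eu-W1024 (10 nM) and anti-GST allophycocyanin (50 nM) for 1.5 h. IC50 from TR-FRET ratio decrease versus DMSO.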
# NRAS G12C = NRAS G12C (Homo sapiens (Human), UniProt P01111+P62937, G12C); assay: Ras-Raf (BRAF RBD) disruption / FRET / MOA assay, NRAS G12C; assay type: biochemical; conditions: read-out: IC50* NRAS G12C FRET data
# Procedure, shortened: as §1
# KRAS G12D = KRAS G12D (Homo sapiens (Human), UniProt P01116+P62937, G12D); assay: Ras-Raf (BRAF RBD) disruption / FRET / MOA assay, KRAS G12D; assay type: biochemical; conditions: Ras-Raf disruption/FRET/MOA assay; class symbols; read-out: KRAS G12D FRET data IC50
# Procedure, shortened: as §1
# NCI-H358 (K-Ras G12C) = assay: CellTiter-Glo cell viability assay, NCI-H358; assay type: cell-based, human; conditions: Homo sapiens, NCI-H358, 120 h, NCI-H358, 5-day treatment; class symbols; read-out: Additional H358 Cell Viability assay data (K-Ras G12C, IC50)
# Procedure, shortened: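 Luminescent viability readout on day 5 after direct compound addition to plated cells; plates sat ~30 min at room temperature before reading. Values expressed as percent of mean DMSO signal, curves fit with a four-parameter logistic model.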
# KRAS G13D = KRAS G13D (Homo sapiens (Human), UniProt P01116+P62937, G13D); assay: Ras-Raf (BRAF RBD) disruption / FRET / MOA assay, KRAS G13D; assay type: biochemical; conditions: read-out: IC50* KRAS G13D FRET data
# Procedure, shortened: as §1
# KRAS G12V = KRAS G12V (Homo sapiens (Human), UniProt P01116+P62937, G12V); assay: Ras-Raf (BRAF RBD) disruption / FRET / MOA assay, KRAS G12V; assay type: biochemical; conditions: read-out: IC50* KRAS G12V FRET data
# Procedure, shortened: as §1
# KRAS G12S = KRAS G12S (Homo sapiens (Human), UniProt P01116+P62937, G12S); assay: Ras-Raf (BRAF RBD) disruption / FRET / MOA assay, KRAS G12S; assay type: biochemical; conditions: Ras-Raf disruption/FRET/MOA assay; class symbols; read-out: KRAS G12S FRET data IC50
# Procedure, shortened: as §1
# KRAS WT = KRAS WT (Homo sapiens (Human), UniProt P01116+P62937); assay: Ras-Raf (BRAF RBD) disruption / FRET / MOA assay, KRAS WT; assay type: biochemical; conditions: read-out: IC50* KRAS WT FRET data
# Procedure, shortened: as §1
# [1] = system: NCI-H358 cells (K-Ras G12C); assay: Potency assay: pERK in NCI-H358 cells; assay type: cell-based, human; conditions: Homo sapiens, NCI-H358; H358 KRAS G12C; read-out: pERK EC50
# Procedure, shortened: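 Compounds are dosed as ten 3-fold dilutions from a 10 mM DMSO stock, in duplicate, and left on cells for 4 h at 37 °C, 5% CO2. Phospho-ERK1/2 is then quantified by AlphaLISA SureFire Ultra or In-Cell Western, and IC50 is derived from a 4-parameter sigmoid against log concentration.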
# K-Ras G13C = K-Ras G13C (Homo sapiens (Human), UniProt P01116+P62937, G13C); assay: Ras-Raf (BRAF RBD) disruption / FRET / MOA assay, KRAS G13C; assay type: biochemical; conditions: KRAS G13C; Ras-Raf disruption/FRET/MOA assay; read-out: IC50* KRAS G13C FRET data
# Procedure, shortened: as §1
# Sequence of KRAS G12V (P01116-2 other isoform, or with tags, fused parts or gaps G12V): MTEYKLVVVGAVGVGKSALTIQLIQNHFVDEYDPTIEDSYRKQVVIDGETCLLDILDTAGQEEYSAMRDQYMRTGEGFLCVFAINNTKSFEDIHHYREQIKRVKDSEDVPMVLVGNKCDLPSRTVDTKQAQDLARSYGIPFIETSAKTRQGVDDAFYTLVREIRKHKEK
# Sequence of KRAS G12V (P62937 whole entry): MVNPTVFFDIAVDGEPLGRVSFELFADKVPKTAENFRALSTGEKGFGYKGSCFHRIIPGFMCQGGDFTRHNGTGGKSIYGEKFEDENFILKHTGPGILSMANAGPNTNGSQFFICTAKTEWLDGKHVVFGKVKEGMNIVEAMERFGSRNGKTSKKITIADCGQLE
# Sequence of K-Ras G13C (P01116-2 other isoform, or with tags, fused parts or gaps G13C): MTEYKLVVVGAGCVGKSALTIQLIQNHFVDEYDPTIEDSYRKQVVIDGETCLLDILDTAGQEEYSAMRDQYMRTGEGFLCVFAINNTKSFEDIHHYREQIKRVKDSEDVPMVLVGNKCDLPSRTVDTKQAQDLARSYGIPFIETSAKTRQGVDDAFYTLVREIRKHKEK
# Sequence of K-Ras G13C (P62937 whole entry): as the sequence (P62937 whole entry) above
# Sequence of K-Ras G12C (P01116-2 other isoform, or with tags, fused parts or gaps G12C): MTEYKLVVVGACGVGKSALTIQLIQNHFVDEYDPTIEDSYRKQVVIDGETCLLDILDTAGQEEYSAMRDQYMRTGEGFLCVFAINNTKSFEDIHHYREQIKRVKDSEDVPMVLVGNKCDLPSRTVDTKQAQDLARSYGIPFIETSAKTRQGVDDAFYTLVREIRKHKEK
# Sequence of K-Ras G12C (P62937 whole entry): as the sequence (P62937 whole entry) above
# Sequence of KRAS G12S (P01116-2 other isoform, or with tags, fused parts or gaps G12S): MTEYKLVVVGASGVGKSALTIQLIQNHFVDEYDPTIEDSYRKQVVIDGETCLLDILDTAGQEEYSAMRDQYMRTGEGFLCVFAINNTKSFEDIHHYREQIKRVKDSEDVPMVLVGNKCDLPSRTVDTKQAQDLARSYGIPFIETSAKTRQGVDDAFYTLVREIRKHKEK
# Sequence of KRAS G12S (P62937 whole entry): as the sequence (P62937 whole entry) above
# Sequence of NRAS G12C (P01111 whole entry G12C): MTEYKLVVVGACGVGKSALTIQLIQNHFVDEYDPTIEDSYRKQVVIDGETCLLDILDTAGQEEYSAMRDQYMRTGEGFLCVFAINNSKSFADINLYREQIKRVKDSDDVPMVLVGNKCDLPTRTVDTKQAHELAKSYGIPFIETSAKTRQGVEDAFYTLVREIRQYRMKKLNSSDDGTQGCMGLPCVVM
# Sequence of NRAS G12C (P62937 whole entry): as the sequence (P62937 whole entry) above
# Sequence of KRAS WT (P01116-2 other isoform, or with tags, fused parts or gaps): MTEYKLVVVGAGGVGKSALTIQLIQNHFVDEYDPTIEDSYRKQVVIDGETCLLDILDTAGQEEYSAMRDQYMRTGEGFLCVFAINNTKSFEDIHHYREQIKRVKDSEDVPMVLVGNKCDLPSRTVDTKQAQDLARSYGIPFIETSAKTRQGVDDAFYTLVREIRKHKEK
# Sequence of KRAS WT (P62937 whole entry): as the sequence (P62937 whole entry) above
# Sequence of KRAS G12D (P01116-2 other isoform, or with tags, fused parts or gaps G12D): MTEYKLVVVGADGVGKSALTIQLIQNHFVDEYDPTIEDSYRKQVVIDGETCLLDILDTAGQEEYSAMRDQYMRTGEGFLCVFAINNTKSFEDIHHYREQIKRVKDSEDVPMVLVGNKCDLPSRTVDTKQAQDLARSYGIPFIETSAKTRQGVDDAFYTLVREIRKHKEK
# Sequence of KRAS G12D (P62937 whole entry): as the sequence (P62937 whole entry) above
# Sequence of KRAS G13D (P01116-2 other isoform, or with tags, fused parts or gaps G13D): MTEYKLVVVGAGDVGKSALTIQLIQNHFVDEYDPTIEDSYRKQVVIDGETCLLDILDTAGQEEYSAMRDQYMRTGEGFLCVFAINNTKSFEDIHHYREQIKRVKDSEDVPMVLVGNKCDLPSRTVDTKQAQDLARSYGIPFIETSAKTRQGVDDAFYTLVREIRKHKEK
# Sequence of KRAS G13D (P62937 whole entry): as the sequence (P62937 whole entry) above
Compound,IC50 (K-Ras G12C),IC50 (NRAS G12C),IC50 (KRAS G12D),IC50 (NCI-H358 (K-Ras G12C)),IC50 (KRAS G13D),IC50 (KRAS G12V),IC50 (KRAS G12S),IC50 (KRAS WT),EC50 [1],IC50 (K-Ras G13C)
"CC#CC(=O)N1CC[C@]2(CCN([C@H](C(=O)N[C@H]3Cc4cccc(c4)-c4ccc5c(c4)c(c(-c4cccnc4[C@H](C)OC)n5CC)CC(C)(C)COC(=O)[C@@H]4CCCN(N4)C3=O)C(C)C)C2=O)C1 (atropisomer, axis not shown) [Example A412]",100 to 1000 nM,100 to 1000 nM,1000 to 10000 nM,10 to 100 nM,1000 to 10000 nM,1000 to 10000 nM,1000 to 10000 nM,1000 to 10000 nM,< 5000 nM,100 to 1000 nM
"CC#CC(=O)N1C[C@H](C)[C@H](C(=O)N(C)[C@H](C(=O)N[C@H]2Cc3cccc(c3)-c3ccc4c(c3)c(c(-c3cccnc3[C@H](C)OC)n4CC)CC(C)(C)COC(=O)[C@@H]3CCCN(N3)C2=O)C(C)C)C1 (atropisomer, axis not shown) [Example A413]",100 to 1000 nM,100 to 1000 nM,> 10000 nM,10 to 100 nM,1000 to 10000 nM,1000 to 10000 nM,1000 to 10000 nM,1000 to 10000 nM,< 5000 nM,1000 to 10000 nM
"CCn1c(-c2cccnc2[C@H](C)OC)c2c3cc(ccc31)-c1cccc(c1)C[C@H](NC(=O)[C@H](C(C)C)N1CC[C@@]3(CCN(C(=O)C#CC(C)(C)N(C)C)C3)C1=O)C(=O)N1CCC[C@H](N1)C(=O)OCC(C)(C)C2 (atropisomer, axis not shown) [Example A414]",< 10 nM,< 10 nM,> 10000 nM,< 10 nM,> 10000 nM,1000 to 10000 nM,1000 to 10000 nM,> 10000 nM,< 5000 nM,1000 to 10000 nM
"C=CC(=O)N1CCC12CCN(C(=O)N(C)[C@H](C(=O)N[C@H]1Cc3nc(cs3)-c3ccc4c(c3)c(c(-c3cccnc3[C@H](C)OC)n4CC)CC(C)(C)COC(=O)[C@@H]3CCCN(N3)C1=O)C(C)C)CC2 (atropisomer, axis not shown) [Example A415]",100 to 1000 nM,100 to 1000 nM,1000 to 10000 nM,10 to 100 nM,100 to 1000 nM,100 to 1000 nM,100 to 1000 nM,100 to 1000 nM,< 5000 nM,100 to 1000 nM
"C=CC(=O)N1C[C@@H](C)N(C(=O)N(C)[C@H](C(=O)N[C@H]2Cc3nc(cs3)-c3ccc4c(c3)c(c(-c3cccnc3[C@H](C)OC)n4CC)CC(C)(C)COC(=O)[C@@H]3CCCN(N3)C2=O)C(C)C)C[C@@H]1C (atropisomer, axis not shown) [Example A418]",10 to 100 nM,10 to 100 nM,100 to 1000 nM,10 to 100 nM,100 to 1000 nM,10 to 100 nM,10 to 100 nM,10 to 100 nM,< 5000 nM,10 to 100 nM
"C=CC(=O)N1CC2(C1)CN(C(=O)N(C)[C@H](C(=O)N[C@H]1Cc3nc(cs3)-c3ccc4c(c3)c(c(-c3cccnc3[C@H](C)OC)n4CC)CC(C)(C)COC(=O)[C@@H]3CCCN(N3)C1=O)C(C)C)C2 (atropisomer, axis not shown) [Example A419]",100 to 1000 nM,10 to 100 nM,1000 to 10000 nM,< 10 nM,1000 to 10000 nM,100 to 1000 nM,100 to 1000 nM,100 to 1000 nM,< 5000 nM,100 to 1000 nM
